Assay results taken from patent US5684127A, “Tetrapeptides deriving from dalbaheptide antibiotics” (Gruppo Lepetit SpA, priority 1995, dated 1997).
≈ marks a conversion by molar mass, not a printed value.

Experiments:
Assay in all cases: in vitro antibacterial activity, MIC in microtiter
[1] = tested on: Enterococcus faecalis ATCC 7,080 (L 149); format: cell-based; settings: Mueller-Hinton, 0.01% bovine serum albumin, 37° C. 18-24 hours
Protocol: (§1) The in vitro antibacterial activity of the compounds is determined by means of standard […] tests in microtiter. Iso-Sensitest broth (Oxoid) is used for all bacteria except streptococci (Todd-Wewitt broth, Difco) and enterococci (Mueller-Hinton, Difco). Broth cultures are diluted so that the final inoculum is about 5×10^5 cfu/ml (colony forming units per ml). All broth microdilution MICs are performed in the presence of 0.01% bovine serum albumin (Pentax fraction V, Sigma).

[2] = tested on: S. aureus clin. isol. (L 561); format: cell-based; settings: Iso-Sensitest broth, 0.01% bovine serum albumin, 37° C. 18-24 hours
Protocol: as §1

[3] = tested on: S. epidermidis ATCC 12,228 (L 147); format: cell-based; settings: Iso-Sensitest broth, 0.01% bovine serum albumin, 37° C. 18-24 hours
Protocol: as §1

[4] = tested on: S. epidermidis clin. isol. (L 533); format: cell-based; settings: Iso-Sensitest broth, 0.01% bovine serum albumin, 37° C. 18-24 hours
Protocol: as §1

[5] = tested on: S. haemolyticus clin, isol. (L 602); format: cell-based; settings: Iso-Sensitest broth, 0.01% bovine serum albumin, 37° C. 18-24 hours
Protocol: as §1

[6] = tested on: Staph. aureus Tour (L 165); format: cell-based; settings: Iso-Sensitest broth, 0.01% bovine serum albumin, 37° C. 18-24 hours
Protocol: as §1

[7] = tested on: Strep. pneumoniae UC41 (L 44); format: cell-based; settings: Todd-Wewitt broth, 0.01% bovine serum albumin, 37° C. 18-24 hours
Protocol: as §1

[8] = tested on: Strep. pyogenes C203 (L 49); format: cell-based; settings: Todd-Wewitt broth, 0.01% bovine serum albumin, 37° C. 18-24 hours
Protocol: as §1

S. aurens Smith (L 819) = format: cell-based; settings: Iso-Sensitest broth, 0.01% bovine serum albumin, 37° C. 18-24 hours
Protocol: as §1, with “(Todd-[…]” for “(Todd-Wewitt”, “ml).” for “ml). All broth microdilution MICs are performed in the presence of 0.01% bovine serum albumin (Pentax fraction V, Sigma).”

[9] = tested on: E. faecalis clin. isol. (L 502); format: cell-based, Enterococcus faecalis; settings: Mueller-Hinton, 0.01% bovine serum albumin, 37° C. 18-24 hours
Protocol: as §1

Compound	MIC [1] [µg/mL]	MIC [2] [µg/mL]	MIC [3] [µg/mL]	MIC [4] [µg/mL]	MIC [5] [µg/mL]	MIC [6] [µg/mL]	MIC [7] [µg/mL]	MIC [8] [µg/mL]	MIC (S. aurens Smith (L 819)) [µg/mL]	MIC [9] [µg/mL]
teicoplanin	0.13	8	8	8	32	0.13	0.13	0.13	0.25	
(L-phenylalanyl)^3 -(D-lysyl)^15 -aglucoteicoplanin dalbaheptide methyl ester	0.5	0.06	0.13	0.13	0.5	0.13	0.13	0.25	0.13	16
N[C@H]1C(=O)N[C@@H]2Cc3ccc(c(Cl)c3)Oc3cc4cc(c3O)Oc3ccc(cc3Cl)[C@@H](O)[C@@H]3NC(=O)[C@H](NC(=O)[C@@H]4NC(=O)[C@@H](NC2=O)c2cc(O)cc(c2)Oc2cc1ccc2O)c1ccc(O)c(c1)-c1c(O)cc(O)cc1[C@@H](C(=O)O)NC3=O [teicoplanin aglycon]	0.13 (≈ 0.108 µM)	0.13 (≈ 0.108 µM)	0.06 (≈ 0.05 µM)	0.016 (≈ 0.0133 µM)	0.25 (≈ 0.209 µM)	0.13 (≈ 0.108 µM)	0.13 (≈ 0.108 µM)	0.13 (≈ 0.108 µM)	0.06 (≈ 0.05 µM)	
